Experimental data reported in ChEMBL document CHEMBL4002647, “BMS-933043, a Selective α7 nAChR Partial Agonist for the Treatment of Cognitive Deficits Associated with Schizophrenia” (ACS Med Chem Lett, 2017).
The source made the active and inactive calls. No cut-off for these calls is given here.

Tests used:
[1] = Cmax in dog at 5 mg/kg, po; format: ADME, organism-based, Canis lupus familiaris; design: dose 5 mg/kg, route oral; conditions: in vivo
[2] = Oral bioavailability in cynomolgus monkey at 5 mg/kg; format: ADME, organism-based, Macaca fascicularis; conditions: in vivo
[3] = Fraction unbound in dog plasma at 10 uM after 4 hrs by equilibrium dialysis method; format: ADME, cell-free, Canis lupus familiaris
[4] = molecular target: Muscarinic acetylcholine receptor M5 (Homo sapiens) (UniProt P08912); assay: Activity at human muscarinic M5 receptor
Chain of Muscarinic acetylcholine receptor M5 (Homo sapiens) (P08912 whole entry): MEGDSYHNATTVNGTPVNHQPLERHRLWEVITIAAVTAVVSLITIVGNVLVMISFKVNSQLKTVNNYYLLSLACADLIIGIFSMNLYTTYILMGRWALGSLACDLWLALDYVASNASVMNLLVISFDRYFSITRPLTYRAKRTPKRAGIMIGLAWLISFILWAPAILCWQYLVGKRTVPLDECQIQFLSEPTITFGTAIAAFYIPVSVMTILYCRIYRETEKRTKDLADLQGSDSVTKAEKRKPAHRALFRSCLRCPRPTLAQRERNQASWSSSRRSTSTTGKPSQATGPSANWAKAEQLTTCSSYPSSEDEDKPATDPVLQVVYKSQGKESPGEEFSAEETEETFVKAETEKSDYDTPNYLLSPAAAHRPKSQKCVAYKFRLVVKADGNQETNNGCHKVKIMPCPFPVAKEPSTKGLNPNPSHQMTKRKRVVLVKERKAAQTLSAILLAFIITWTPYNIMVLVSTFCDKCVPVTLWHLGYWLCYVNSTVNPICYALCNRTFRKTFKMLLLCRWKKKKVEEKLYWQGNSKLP

[5] = tested on: Mus musculus; assay: Cognitive enhancing effect in C57Bl/6 mouse assessed as time spent on exploring novel objects at 0.1 to 10 mg/kg, sc administered 30 mins prior to test and measured after 24 hrs by novel object recognition test; format: functional, organism-based
[6] = Half life in cynomolgus monkey at 1 mg/kg, iv administered as 5 mins infusion; format: ADME, organism-based, Macaca fascicularis; conditions: in vivo
[7] = molecular target: Nicotinic acetylcholine receptor alpha-1/beta-1/delta/epsilon (Rattus norvegicus, UniProt P09660+P25108+P25109+P25110); assay: Agonist activity at rat alpha1beta1delta1epsilon nAChR expressed in HEK293 cells assessed as increase in Ca2+ flux by Fluo-4 AM dye based FLIPR assay; format: cell-based
[8] = molecular target: Muscarinic acetylcholine receptor M1 (Homo sapiens) (UniProt P11229); assay: Activity at human muscarinic M1 receptor
Chain of Muscarinic acetylcholine receptor M1 (Homo sapiens) (P11229 whole entry, the tested form may be a part): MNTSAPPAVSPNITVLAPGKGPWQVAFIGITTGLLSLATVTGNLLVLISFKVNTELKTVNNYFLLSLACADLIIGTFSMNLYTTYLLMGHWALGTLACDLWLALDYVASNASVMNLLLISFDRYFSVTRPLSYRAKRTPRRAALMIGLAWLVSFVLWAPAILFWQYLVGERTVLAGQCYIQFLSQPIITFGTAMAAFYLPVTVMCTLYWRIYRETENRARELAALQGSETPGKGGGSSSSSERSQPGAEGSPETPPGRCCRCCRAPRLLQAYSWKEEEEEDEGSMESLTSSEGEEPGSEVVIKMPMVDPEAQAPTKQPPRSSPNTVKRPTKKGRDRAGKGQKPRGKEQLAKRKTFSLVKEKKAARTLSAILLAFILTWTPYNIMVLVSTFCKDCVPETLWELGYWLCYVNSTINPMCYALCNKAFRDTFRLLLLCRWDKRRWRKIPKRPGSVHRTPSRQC

[9] = Total plasma clearance in rat at 1 mg/kg, iv administered as 5 mins infusion; format: ADME, organism-based
[10] = Drug level in C57Bl/6 mouse plasma at 0.1 mg/kg, sc after 30 mins; format: ADME, organism-based
[11] = tested on: Mus musculus; assay: Cognitive enhancing effect in C57Bl/6 mouse assessed as time spent on exploring novel objects administered subcutaneously 30 mins prior to test and measured after 24 hrs by novel object recognition test; format: functional; conditions: C57Bl/6, sc, read-out: MED
[12] = Metabolic stability in dog liver microsomes assessed as compound remaining at 3 uM after 10 mins by LC-MS/MS analysis; format: ADME, Canis lupus familiaris, microsome; conditions: read-out: Stability
[13] = molecular target: T1, Cytochrome P450 3A4 (Homo sapiens, UniProt P08684); assay: Inhibition of recombinant human CYP3A4 using fluorogenic substrate BZR preincubated for 30 mins and measured after 20 to 60 mins in presence of NADPH regenerating system by fluorescence assay; format: ADME
T1 sequence (P08684 whole entry): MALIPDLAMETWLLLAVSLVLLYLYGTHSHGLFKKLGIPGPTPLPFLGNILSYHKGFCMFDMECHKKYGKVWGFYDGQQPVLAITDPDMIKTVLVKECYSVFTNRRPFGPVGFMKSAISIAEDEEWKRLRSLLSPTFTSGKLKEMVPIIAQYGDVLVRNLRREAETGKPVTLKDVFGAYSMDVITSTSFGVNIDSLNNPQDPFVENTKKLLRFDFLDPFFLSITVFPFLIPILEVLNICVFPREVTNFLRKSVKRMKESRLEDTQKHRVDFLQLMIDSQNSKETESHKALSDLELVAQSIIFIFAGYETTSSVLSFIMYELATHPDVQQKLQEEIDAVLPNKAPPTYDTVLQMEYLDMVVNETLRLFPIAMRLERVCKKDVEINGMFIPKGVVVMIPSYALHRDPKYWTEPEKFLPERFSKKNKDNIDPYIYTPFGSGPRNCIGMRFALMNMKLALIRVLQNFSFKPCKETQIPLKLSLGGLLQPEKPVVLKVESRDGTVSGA

[14] = AUC in dog at 5 mg/kg, po; format: ADME, organism-based, Canis lupus familiaris; conditions: in vivo
[15] = molecular target: Muscarinic acetylcholine receptor M4 (Homo sapiens) (UniProt P08173); assay: Activity at human muscarinic M4 receptor
Chain of Muscarinic acetylcholine receptor M4 (Homo sapiens) (P08173 whole entry, the tested form may be a part): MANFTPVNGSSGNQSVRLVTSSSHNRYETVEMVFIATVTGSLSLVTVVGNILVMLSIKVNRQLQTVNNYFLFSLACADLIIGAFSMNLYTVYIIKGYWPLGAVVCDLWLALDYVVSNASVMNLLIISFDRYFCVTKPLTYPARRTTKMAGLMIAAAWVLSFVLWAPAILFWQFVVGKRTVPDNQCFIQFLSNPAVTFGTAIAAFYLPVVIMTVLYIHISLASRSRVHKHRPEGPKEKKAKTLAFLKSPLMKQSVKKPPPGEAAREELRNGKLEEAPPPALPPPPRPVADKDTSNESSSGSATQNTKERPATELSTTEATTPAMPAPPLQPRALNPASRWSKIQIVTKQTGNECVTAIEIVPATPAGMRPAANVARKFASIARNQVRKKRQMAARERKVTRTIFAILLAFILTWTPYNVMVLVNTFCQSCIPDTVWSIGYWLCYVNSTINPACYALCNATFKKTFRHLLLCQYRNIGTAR

[16] = Total plasma clearance in cynomolgus monkey at 1 mg/kg, iv administered as 5 mins infusion; format: ADME, organism-based, Macaca fascicularis
[17] = Fraction unbound in mouse plasma at 10 uM after 4 hrs by equilibrium dialysis method; format: ADME, cell-free
[18] = molecular target: Cytochrome P450 2C8 (Homo sapiens, UniProt P10632); assay: Inhibition of recombinant human CYP2C8 using fluorogenic substrate preincubated for 30 mins and measured after 20 to 60 mins in presence of NADPH regenerating system by fluorescence assay; format: ADME
[19] = molecular target: Cytochrome P450 2B6 (Homo sapiens, UniProt P20813); assay: Inhibition of recombinant human CYP2B6 using fluorogenic substrate preincubated for 30 mins and measured after 20 to 60 mins in presence of NADPH regenerating system by fluorescence assay; format: ADME
[20] = Oral bioavailability in mouse at 10 mg/kg; format: ADME, organism-based; conditions: in vivo
[21] = molecular target: T2, Neuronal acetylcholine receptor subunit alpha-7 (Homo sapiens, UniProt P36544); assay: Agonist activity at human alpha7 nAChR expressed in HEK293 cells co-expressing human RIC3 assessed as area under current curve at holding potential of -90 mV by whole-cell voltage clamp electrophysiology method; format: cell-based
T2 sequence (P36544 whole entry): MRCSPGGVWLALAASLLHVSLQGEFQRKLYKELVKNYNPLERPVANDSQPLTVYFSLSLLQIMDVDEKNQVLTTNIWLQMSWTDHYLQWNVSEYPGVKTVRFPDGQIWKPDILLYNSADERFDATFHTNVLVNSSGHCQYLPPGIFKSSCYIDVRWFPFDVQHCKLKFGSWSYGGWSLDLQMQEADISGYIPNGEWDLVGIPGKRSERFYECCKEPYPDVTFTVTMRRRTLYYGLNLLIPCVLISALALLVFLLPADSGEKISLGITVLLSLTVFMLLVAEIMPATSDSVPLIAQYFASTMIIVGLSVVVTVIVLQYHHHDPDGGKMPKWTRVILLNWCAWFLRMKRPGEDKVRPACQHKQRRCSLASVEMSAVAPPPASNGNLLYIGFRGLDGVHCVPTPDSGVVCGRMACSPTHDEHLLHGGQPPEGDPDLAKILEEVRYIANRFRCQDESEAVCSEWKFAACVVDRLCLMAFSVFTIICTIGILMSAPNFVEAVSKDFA

[22] = molecular target: Neuronal acetylcholine receptor; alpha4/beta2 (Rattus norvegicus, UniProt P09483+P12390); assay: Agonist activity at rat alpha4beta2 nAChR expressed in HEK293 cells assessed as increase in Ca2+ flux by Fluo-4 AM dye based FLIPR assay; format: cell-based
[23] = molecular target: T1, Cytochrome P450 3A4; assay: Inhibition of recombinant human CYP3A4 using fluorogenic substrate BFC preincubated for 30 mins and measured after 20 to 60 mins in presence of NADPH regenerating system by fluorescence assay; format: ADME
[24] = Volume of distribution at steady state in dog at 1 mg/kg, iv administered as 5 mins infusion; format: ADME, organism-based, Canis lupus familiaris; conditions: in vivo, read-out: Vdss
[25] = Metabolic stability in human liver microsomes assessed as compound remaining at 3 uM after 10 mins by LC-MS/MS analysis; format: ADME, microsome; conditions: read-out: Stability
[26] = AUC in dog at 1 mg/kg, iv administered as 5 mins infusion; format: ADME, organism-based, Canis lupus familiaris; conditions: in vivo
[27] = molecular target: Cytochrome P450 2D6 (Homo sapiens, UniProt P10635); assay: Inhibition of recombinant human CYP2D6 using fluorogenic substrate preincubated for 30 mins and measured after 20 to 60 mins in presence of NADPH regenerating system by fluorescence assay; format: ADME
Chain of Cytochrome P450 2D6 (P10635 whole entry): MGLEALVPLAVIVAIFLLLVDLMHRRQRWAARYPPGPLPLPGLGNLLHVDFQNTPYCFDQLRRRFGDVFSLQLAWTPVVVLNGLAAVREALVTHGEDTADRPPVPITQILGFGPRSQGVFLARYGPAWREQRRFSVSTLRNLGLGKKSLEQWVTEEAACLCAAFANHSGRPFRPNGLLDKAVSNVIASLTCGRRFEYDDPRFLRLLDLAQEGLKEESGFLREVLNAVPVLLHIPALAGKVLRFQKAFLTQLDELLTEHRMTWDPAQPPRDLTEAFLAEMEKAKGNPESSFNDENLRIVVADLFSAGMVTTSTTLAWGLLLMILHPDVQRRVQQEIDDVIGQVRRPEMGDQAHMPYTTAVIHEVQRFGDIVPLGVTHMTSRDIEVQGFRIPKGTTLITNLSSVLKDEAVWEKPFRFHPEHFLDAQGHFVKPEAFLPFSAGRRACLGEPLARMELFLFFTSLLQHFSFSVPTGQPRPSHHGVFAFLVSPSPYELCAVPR

[28] = molecular target: Neuronal acetylcholine receptor; alpha3/beta4 (Rattus norvegicus, UniProt P04757+P12392); assay: Agonist activity at rat alpha3beta4 nAChR expressed in HEK293 cells assessed as increase in Ca2+ flux by Fluo-4 AM dye based FLIPR assay; format: cell-based
Chain of Neuronal acetylcholine receptor; alpha3/beta4 (P04757 whole entry, the tested form may be a part): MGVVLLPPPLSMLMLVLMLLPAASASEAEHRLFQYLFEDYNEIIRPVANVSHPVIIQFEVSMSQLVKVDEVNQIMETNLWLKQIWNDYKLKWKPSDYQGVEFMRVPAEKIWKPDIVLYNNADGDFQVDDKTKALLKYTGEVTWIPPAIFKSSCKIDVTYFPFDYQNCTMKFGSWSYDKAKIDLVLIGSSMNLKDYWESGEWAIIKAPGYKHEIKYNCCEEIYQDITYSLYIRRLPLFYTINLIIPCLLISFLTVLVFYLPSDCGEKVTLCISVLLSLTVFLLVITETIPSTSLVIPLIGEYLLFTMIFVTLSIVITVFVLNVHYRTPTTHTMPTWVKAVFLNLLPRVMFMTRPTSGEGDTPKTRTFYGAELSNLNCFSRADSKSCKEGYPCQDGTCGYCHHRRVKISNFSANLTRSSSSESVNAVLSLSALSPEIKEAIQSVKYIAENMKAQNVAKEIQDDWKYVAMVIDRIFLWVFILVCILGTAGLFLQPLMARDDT
Chain of Neuronal acetylcholine receptor; alpha3/beta4 (P12392 whole entry, the tested form may be a part): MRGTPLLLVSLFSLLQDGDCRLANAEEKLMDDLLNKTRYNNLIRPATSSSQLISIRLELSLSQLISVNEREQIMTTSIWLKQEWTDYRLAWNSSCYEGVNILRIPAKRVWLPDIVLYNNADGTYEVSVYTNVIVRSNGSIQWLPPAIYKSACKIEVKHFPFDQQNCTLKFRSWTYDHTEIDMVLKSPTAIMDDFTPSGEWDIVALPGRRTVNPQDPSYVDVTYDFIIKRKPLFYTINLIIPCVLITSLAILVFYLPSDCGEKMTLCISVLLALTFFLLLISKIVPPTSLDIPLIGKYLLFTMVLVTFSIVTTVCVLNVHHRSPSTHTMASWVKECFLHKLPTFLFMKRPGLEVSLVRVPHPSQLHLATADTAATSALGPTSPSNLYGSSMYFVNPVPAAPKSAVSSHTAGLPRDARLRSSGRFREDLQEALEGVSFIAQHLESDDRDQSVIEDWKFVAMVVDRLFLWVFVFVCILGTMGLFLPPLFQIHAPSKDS

[29] = Total plasma clearance in dog at 1 mg/kg, iv administered as 5 mins infusion; format: ADME, organism-based, Canis lupus familiaris
[30] = Cmax in cynomolgus monkey at 5 mg/kg, po; format: ADME, organism-based, Macaca fascicularis; design: dose 5 mg/kg, route oral; conditions: in vivo
[31] = Ratio of drug level in mouse brain to plasma at 1 mg/kg, iv administered as 5 mins infusion after 30 mins; format: ADME, organism-based; conditions: brain and plasma, read-out: BPR
[32] = Volume of distribution at steady state in cynomolgus monkey at 1 mg/kg, iv administered as 5 mins infusion; format: ADME, organism-based, Macaca fascicularis; conditions: in vivo, read-out: Vdss
[33] = molecular target: T2, Neuronal acetylcholine receptor subunit alpha-7; assay: Agonist activity at human alpha7 nAChR expressed in HEK293 cells co-expressing human RIC3 assessed as induction of peak current amplitutde at 10 uM at holding potential of -90 mV by whole-cell voltage clamp electrophysiology method relative to acetylcholine; format: cell-based
[34] = AUC in rat at 10 mg/kg, po; format: ADME, organism-based; conditions: in vivo
[35] = Total plasma clearance in mouse at 1 mg/kg, iv administered as 5 mins infusion; format: ADME, organism-based
[36] = molecular target: T2, Neuronal acetylcholine receptor subunit alpha-7; assay: Agonist activity at human alpha7 nAChR expressed in HEK293 cells co-expressing human RIC3 assessed as area under current curve at 10 uM at holding potential of -90 mV by whole-cell voltage clamp electrophysiology method relative to acetylcholine; format: cell-based
[37] = Fraction unbound in monkey plasma at 10 uM after 4 hrs by equilibrium dialysis method; format: ADME, cell-free, Macaca mulatta; conditions: rhesus monkey
[38] = AUC in cynomolgus monkey at 1 mg/kg, iv administered as 5 mins infusion; format: ADME, organism-based, Macaca fascicularis; conditions: in vivo
[39] = AUC in mouse at 10 mg/kg, po; format: ADME, organism-based; conditions: in vivo
[40] = molecular target: Muscarinic acetylcholine receptor M3 (Homo sapiens) (UniProt P20309); assay: Activity at human muscarinic M3 receptor
Chain of Muscarinic acetylcholine receptor M3 (Homo sapiens) (P20309 whole entry, looked up): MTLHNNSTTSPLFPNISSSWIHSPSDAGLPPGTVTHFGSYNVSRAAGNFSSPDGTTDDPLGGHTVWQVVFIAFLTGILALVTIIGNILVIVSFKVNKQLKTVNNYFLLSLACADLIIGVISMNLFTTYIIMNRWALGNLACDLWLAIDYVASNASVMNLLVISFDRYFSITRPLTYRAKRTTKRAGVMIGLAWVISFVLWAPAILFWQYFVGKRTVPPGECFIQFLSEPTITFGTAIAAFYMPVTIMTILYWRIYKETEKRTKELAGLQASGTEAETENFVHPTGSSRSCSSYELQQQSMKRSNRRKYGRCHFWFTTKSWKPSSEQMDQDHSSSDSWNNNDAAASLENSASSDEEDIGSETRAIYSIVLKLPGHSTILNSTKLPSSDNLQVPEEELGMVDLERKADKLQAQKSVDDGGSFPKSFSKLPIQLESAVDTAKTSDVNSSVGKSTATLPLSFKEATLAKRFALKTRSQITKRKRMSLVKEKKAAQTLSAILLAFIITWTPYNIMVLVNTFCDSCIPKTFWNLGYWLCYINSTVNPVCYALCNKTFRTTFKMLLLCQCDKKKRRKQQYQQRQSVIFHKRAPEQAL

[41] = Oral bioavailability in dog at 5 mg/kg; format: ADME, organism-based, Canis lupus familiaris; conditions: in vivo
[42] = AUC in rat at 1 mg/kg, iv administered as 5 mins infusion; format: ADME, organism-based; conditions: in vivo
[43] = Metabolic stability in mouse liver microsomes assessed as compound remaining at 3 uM after 10 mins by LC-MS/MS analysis; format: ADME, microsome; conditions: read-out: Stability
[44] = Fraction unbound in C57Bl/6 mouse plasma at 0.1 mg/kg, sc after 30 mins; format: ADME, organism-based
[45] = Fraction unbound in human plasma at 10 uM after 4 hrs by equilibrium dialysis method; format: ADME, cell-free

Which results are given for `c1cn(-c2cc(NC3=NC[C@@]4(CN5CCC4CC5)O3)ncn2)cn1`?
Cmax [1]: 3200 nM; bioavailability [2]: 70%; fraction unbound at 4 h, 10 µM [3]: 0.93; Activity [4]: inactive; Activity [5]: Active; half-life [6]: 4.4 h; EC50 [7]: > 100 µM; Activity [8]: inactive; clearance [9]: 70 mL/min/kg; concentration at 0.5 h [10]: 52 nM; minimal effective dose [11]: 0.1 mg/kg; remaining at 10 min, 3 µM [12]: 98%; IC50 [13]: > 30 µM; AUC [14]: 19 µM·h; Activity [15]: inactive; clearance [16]: 17 mL/min/kg; fraction unbound at 4 h, 10 µM [17]: 0.84; IC50 [18]: > 30 µM; IC50 [19]: > 30 µM; bioavailability [20]: 45%; EC50 [21]: 0.3 µM; EC50 [22]: > 100 µM; IC50 [23]: > 30 µM; Vd [24]: 5.5 L/kg; remaining at 10 min, 3 µM [25]: 91%; AUC at 5 min [26]: 3.4 µM·h; IC50 [27]: > 30 µM; EC50 [28]: > 100 µM; clearance [29]: 15 mL/min/kg; Cmax [30]: 1300 nM; Kp at 0.5 h [31]: 0.21; Vd [32]: 5.7 L/kg; %max [33]: 24%; AUC [34]: 7.2 µM·h; clearance [35]: 96 mL/min/kg; %max [36]: 78%; fraction unbound at 4 h, 10 µM [37]: 0.87; AUC at 5 min [38]: 3 µM·h; AUC [39]: 3.2 µM·h; Activity [40]: inactive; bioavailability [41]: 100%; AUC at 5 min [42]: 0.75 µM·h; remaining at 10 min, 3 µM [43]: 93%; fraction unbound at 0.5 h [44]: 0.84; fraction unbound at 4 h, 10 µM [45]: 0.87
